# Entries after “also recorded” stand apart in the source; their conditions may differ.
# Legend:
# HCC1954 xenografts = test: HCC1954 in vivo xenograft; set-up: species or system mice
# Experimental: Animals were maintained and treated in accordance with Institutional Guidelines of Memorial Sloan Kettering Cancer Center (Protocol number 12-10-019). 5×10^6 cells in 1:1 PBS/Matrigel (Corning) were injected subcutaneously into six-week-old female athymic Foxn1^nu nude mice.
# When tumors reached a volume of ˜150 mm^3 mice were randomized, treated, and tumors were measured twice a week during a month. At least 10 tumors per group were used in all the studies. […] Tumors were harvested at the end of the experiment three hours after the last dosage, fixed in 4% formaldehyde in PBS, and paraffin-embedded. […] Primary staining was followed by 60 minutes incubation with biotinylated goat anti-rabbit IgG (Vector labs) 1:200. Blocker D, Streptavidin-HRP and DAB detection kit (Ventana Medical Systems) were used according to the manufacturer instructions.
# mTORC1 = test: Western blot of mTORC1 signaling (pS6K, pS6, p4EBP1); type: cell-based
# Description: For western blot analysis proteins were extracted in RIPA buffer supplemented with protease and phosphatase inhibitors (Roche). Protein lysates were separated using SDS-PAGE gels and transferred to a PVDF membrane. Then, membranes were probed using specific antibodies. PDK1, pAKT (S473), pAKT (T308), pS6K (T389), pS6 (S240/4), pS6 (235/6), p4EBP1 (S65), PARP, Actin, pRSK (S227), cleaved Caspase 3, pFOXO1/3 (T24/T32), SGK1, SGK2, SGK3, pNDRG1 (T346), NDRG1, Flag, HA, and phospho-RXRXX(S/T) (SEQ ID NO: 1) were from Cell Signaling Technology (CST).
# SGK1 = test: kinase activity and phosphorylation of immunoprecipitated endogenous SGK1; type: cell-based; settings: HCC1954, 4 hr, Crosstide substrate
# Experimental: In vitro kinase activity of endogenous SGK1 and AKT was assayed by measuring [γ-32P] ATP incorporation into Crosstide substrate peptide [[…]] […] SGK1 and AKT were immunoprecipitated from HCC1954 cell line 4 hr after treatment. Immunoprecipitates were washed once with lysis buffer containing 500 mM NaCl, once with lysis buffer, and twice with Buffer A (50 mM Tris pH 7.5, 0.1 mM EGTA). Reactions were carried out in 40 μL total volume containing 0.1 mM [γ-32P] ATP (400-1000 cpm/pmol), 10 mM magnesium acetate, and 30 μM Crosstide peptide. Reactions were terminated by adding 10 μL […] EDTA. 40 μL of the reaction mix was spotted on P81 paper, which was immediately immersed into 50 mM ortophosphoric acid and washed several times. Papers were rinsed in acetone and air dried. Radioactivity was quantified by Cerenkov counting. One unit of enzyme activity was defined as the amount of enzyme that catalyzes incorporation of 1 nmol of [γ-32P] ATP into the substrate over one minute.
# pNDRG1 (T346) = test: Western blot of NDRG1 phosphorylation (T346); type: cell-based; settings: 4 h
# Experimental: A) SGK1 mRNA levels in breast cancer cell lines sensitive or resistant to BYL719 (n=27). B) SGK1 mRNA levels in PIK3CA-mutant breast cancer cell lines sensitive or resistant to BYL719. C) Western blot of SGK1, SGK2, SGK3 and phosphorylated NDRG1 in a panel of PIK3CA—mutant breast cancer cell lines sensitive or resistant to BYL719. D) Western blot for NDRG1 and phosphorylated NDRG1 (T346) in BYL719-sensitive and -resistant breast cancer cell lines treated with BYL719 (1 μM) for 4 h. […] P values are calculated using Student's t-test. Error bars are ±SEM.
# A) Dose-response curves from MDA-MB-361 cells transduced with pLenti7.3-LacZ or pLenti7.3-SGK1 (Δ60, S422D) treated with increasing concentrations of BYL719 for 6 days. B) Western blot analysis of LacZ and SGK1 MDA-MB-361 cells treated with BYL719 (1 μM) for 4 h. […] The DFG motif amino acids are indicated (D240, F241, G242). […] Hydrogen bonds are shown as dotted lines. […] L) IHC analysis of tumors from K collected at the end of the experiment. M) Top panel: growth curves of HCC1954 cells stably expressing doxycycline-inducible control (REN) or SGK1 knockdown treated with increasing concentrations of BYL719 for 6 days. Bottom panel: Western blot analysis of GFP-sorted control (REN) and SGK1 shRNA cells treated with BYL719 (1 μM) for 4 h. P values are calculated using Student's t-test. Error bars are ±SEM.
# Then, membranes were probed using specific antibodies.
# HCC1954 cells = test: cell viability, MTT assay; type: cell-based; settings: HCC1954 shPDK1, 6 days
# Experimental: (§1) Cell viability was measures using the MTT assay. Briefly, 5000 cells were seeded in 96 well plates, treated for 6 days, and assayed using 0,25% MTT (Sigma) and 50 mM sodium succinate (Sigma) solutions during 3 h. Formazan crystals were dissolved with DMSO and absorbance was measured at 570 nm of wavelength.
# JIMT1 cells = test: cell viability, MTT assay; type: cell-based; settings: JIMT1 shPDK1, 6 days
# Experimental: as §1
# [1] = test system: PIK3CA-mutant breast cancer; test: clinical trial NCT01870505, PIK3CA-mutant breast cancer; type: in vivo, patients; settings: with an aromatase inhibitor
# Description: We then explored whether SGK1 and pNDRG1 expression correlate with clinical outcome to PI3Kα inhibition by analyzing PIK3CA-mutant breast cancer samples from 18 patients treated with BYL719 in combination with an aromatase inhibitor (NCT01870505). Three of these tumors expressed high levels of SGK1 mRNA while the remaining 15 had medium/low levels of SGK1 mRNA. […] This was in agreement with the longer time to disease progression of this subset of patients when compared to the SGK1-high/pNDRG1-positive cohort (FIG. 4H, I).
# The MSKCC Institutional Review Board approved the study. Pre-treatment FFPE blocks from patients treated with the PI3Kα inhibitor BYL719 enrolled in the clinical trial NCT01870505 conducted at MSKCC were used for IHC. Informed consent was obtained from all subjects.
# For the study of patients treated with the PI3Kα inhibitor BYL719, pre-treatment biopsy FFPE blocks from patients enrolled in the clinical trial NCT01870505 conducted at MSKCC were used for IHC as described above. For the selection of the patients, PIK3CA and other tumor genomic drivers were analyzed using MSK-IMPACT (Cheng et al., 2015). […] SGK1 mRNA levels were determined using next-generation sequencing (NGS) and the expression results were presented as raw Reads Per Kilobase of transcript per Million mapped reads (RPKM). Mean and standard deviation (SD) was calculated across all the samples with available NGS data and overexpression of SGK1 was called for the samples with mRNA levels greater than mean+1SD. For 6 samples, RNA quality and quantity was not optimal for NGS. In these cases, SGK1 mRNA levels were determined using RT-qPCR as described above. RNA from low expressing (T47D) and high expressing (HCC1954) cell lines were used as positive control and absolute mRNA levels were quantified.
structure (smiles),measurement,setting,value
Cc1nc(NC(=O)N2CCC[C@H]2C(N)=O)sc1-c1ccnc(C(C)(C)C(F)(F)F)c1 [BYL719],"S6 phosphorylation (S240/4) and 4EBP1 (T37/46) in tumors, IHC",HCC1954 xenografts; HCC1954 shGFP vs shPDK1 xenografts,inhibited only in shPDK1 xenografts
same,tumor growth,HCC1954 xenografts; HCC1954 shGFP xenografts,modest delay in tumor growth
same,tumor growth,HCC1954 xenografts; HCC1954 shPDK1 xenografts,durable tumor shrinkage
same,tumor growth,"HCC1954 xenografts; HCC1954 xenografts, BYL719 25 mg/kg daily p.o., GSK2334470 100 mg/kg i.p. 3 times/week, SGK1-inh 50 mg/kg daily p.o.",some antitumor activity
same,"pAKT (S473) in tumors, IHC",HCC1954 xenografts; tumors collected at the end of the experiment,effectively suppressed AKT phosphorylation (S473); also recorded: sufficient to suppress pAKT
same,mTORC1 signaling,"mTORC1; BYL719-resistant cells (HCC1954, JIMT1), 4 h, BYL719 1 μM, GSK2334470 1 μM, SGK1-inh 10 μM",not downstream mTORC1 targets; also recorded: not mTORC1 signaling
same,phosphorylation of mTORC1 downstream targets in PDK1 knockdown cells,"mTORC1; HCC1954 and JIMT1 shPDK1, BYL719 1 μM, 4 h",decreased the phosphorylation of the mTORC1 downstream targets
same,mTORC1 signaling,mTORC1; HCT116 PDPK1−/− cells,inhibits mTORC1
same,mTORC1 signaling,mTORC1; HCT116 parental cells,does not decrease mTORC1 signaling
same,mTORC1 signaling,"mTORC1; MDA-MB-361 cells overexpressing SGK1, 1 μM, 4 h",maintained mTORC1 signaling
same,AKT phosphorylation and mTORC1 signaling,"mTORC1; MDA-MB-361 parental cells, 1 μM, 4 h",decreased both AKT phosphorylation and mTORC1 signaling
same,endogenous SGK1 kinase activity,SGK1,remains active
same,NDRG1 phosphorylation (T346),pNDRG1 (T346); BYL719-resistant cell lines,maintain NDRG1 phosphorylation
same,NDRG1 phosphorylation (T346),"pNDRG1 (T346); BYL719-sensitive cell lines, 1 μM",decreased NDRG1 phosphorylation at T346
same,cell viability in PDK1 knockdown cells,HCC1954 cells,decrease cell viability
same,cell viability in PDK1 knockdown cells,JIMT1 cells,decrease cell viability
same,clinical response by RECIST,[1]; patients with pNDRG1-negative tumors,three had partial responses and eight had stable disease
same,clinical response,"[1]; three patients, tumors with high SGK1, pNDRG1 positive",did not respond to therapy
same,clinical response,"[1]; two patients, medium/low SGK1, pNDRG1 positive",rapidly progressed

# Source: patent US11696924B2, “Combination therapy using PDK1 and PI3K inhibitors” (MEMORIAL SLOAN-KETTERING CANCER CENTER, priority 2015, dated 2023)
